The source of these data is ChEMBL document CHEMBL4330081, “Rational design of 5-((1H-imidazol-1-yl)methyl)quinolin-8-ol derivatives as novel bromodomain-containing protein 4 inhibitors” (Eur J Med Chem, 2019).

For assay [1], the target named is T1, Bromodomain-containing protein 4 (Homo sapiens, UniProt O60885).
Description: Stabilization of BRD4 BD1 (unknown origin) assessed as change in melting temperature at protein to test compound molar ratio of 1:40 by SYPRO Orange dye based fluorescence analysis
A further assay concerns MV4-11. The experiment in a line: Antiproliferative activity against human MV4-11 cells after 72 hrs by CellTiter Glo luminescent assay. It is filed as functional, cell-based. The conditions noted are these: MV4-11, 72 h. (Cellular ATP, detected with luciferase, serves as a proxy for viable cell number.)
The target in assay [2] is T1, Bromodomain-containing protein 4. The experiment in a line: Inhibition of BRD4 BD1 (unknown origin) using biotin labelled NeC: SGRG-K(Ac)-GG-K(Ac)-GLG-K(Ac)-GGA-K(Ac)-RHRKVGG-K as substrate preincubated for 15 mins followed by substrate addition measured after 30 mins by alpha screen assay. A general note: In Alpha technology, singlet oxygen from a donor bead excites a nearby acceptor bead.

For assay [3] the target is unchanged. In words: Inhibition of BRD4 BD1 (unknown origin) at 50 uM using biotin labelled NeC: SGRG-K(Ac)-GG-K(Ac)-GLG-K(Ac)-GGA-K(Ac)-RHRKVGG-K as substrate preincubated for 15 mins followed by substrate addition measured after 30 mins by alpha screen assay relative to control.
Assay [4] shares this target. The experiment in a line: Inhibition of BRD4 BD1 (unknown origin) at 10 uM using biotin labelled NeC: SGRG-K(Ac)-GG-K(Ac)-GLG-K(Ac)-GGA-K(Ac)-RHRKVGG-K as substrate preincubated for 15 mins followed by substrate addition measured after 30 mins by alpha screen assay relative to control.
Another assay relates to MDA-MB-231. In words: Antiproliferative activity against human MDA-MB-231 cells after 72 hrs by CellTiter Glo luminescent assay. The conditions noted are these: MDA-MB-231, 72 h. Type of assay: functional, cell-based.
The next assay concerns MM1.S. The experiment in a line: Antiproliferative activity against human MM1S cells after 72 hrs by CellTiter Glo luminescent assay. Type of assay: functional, cell-based.

Broadly, the ΔTm is the shift of the melting midpoint relative to a reference. Usually IC50 stands for the concentration needed to halve the response being measured. Read a high IC50 as a need for much substance. Take `O=[N+]([O-])c1ccc(O)c2ncccc12` [NITROXOLINE]: in assay [1], the thermal shift (ΔTm) amounted to 3.9 °C. The compound further registered a half-inhibitory concentration (IC50) with MV4-11 of 4.9 µM.

As to `Oc1ccc(CNc2ccc(C(F)(F)F)cc2)c2cccnc12`, inhibition in assay [2] was half-maximal at 4.8 µM (IC50).

Usually inhibition stands for the relative decrease from the control value, in per cent. High values mean a response far below the control, low ones a response near the control. `Cc1ccc(C(=O)C[n+]2cccc3cccc(O)c32)cc1` showed an inhibition in assay [3] of -0%.

As for `O=C1CN(Cc2ccc(O)c3ncccc23)Cc2ncccc2N1`, the ΔTm in assay [1] worked out at 4.3 °C. For the same compound, the IC50 worked out at 0.092 µM in assay [2] and 9.6 µM in the assay on MV4-11.

For `Nc1cc(S(=O)(=O)O)c2cccnc2c1O`, in assay [4], the inhibition was -0%.

`CC(C)(C)OC(=O)Oc1ccc(Cn2c(-c3cscn3)nc3ccccc32)c2cccnc12` had an inhibition in assay [4] of 11%.

With `O=[N+]([O-])c1cccc(S(=O)(=O)Nc2ccc(O)c3ncccc23)c1`, the inhibition in assay [4] was -0%.

Take `Cc1cc(C)c2ccc(C=O)nc2c1O`: the inhibition in assay [4] is -0%.

With `Oc1ccc(COn2nnc3ccccc32)c2cccnc12`, in assay [1], the ΔTm was determined as 4.4 °C. In addition, the IC50 is 0.082 µM in assay [2] and 12.7 µM with MV4-11.

Turning to `Nc1ccc(-c2nc3ccc(-c4nc5ccc(N)cc5[nH]4)cc3[nH]2)cc1`, the inhibition in assay [4] is -0%.

`O=[N+]([O-])c1cccc(-c2ccc(/C=C/c3ccc4cccc(O)c4n3)o2)c1` had an inhibition in assay [3] of -0%.

`Cc1cc(C)n(-c2ccc3c(Cl)cc(Cl)c(O)c3n2)n1` displayed an inhibition in assay [4] of -0%.

In the case of `Oc1ccc(Cn2c(-c3cscn3)nc3ccccc32)c2cccnc12`, the IC50 worked out at 3.7 µM with MDA-MB-231, 2.1 µM in the assay on MM1.S, 0.073 µM in assay [2] and 1.5 µM with MV4-11. For the same compound, the ΔTm in assay [1] amounted to 4.7 °C.

For the compound `O=C(C[n+]1cccc2cccc(O)c21)c1ccc(Cl)cc1`, the inhibition in assay [3] was -0%.

With `CC(=O)Oc1ccc(Cn2cnc(F)c2)c2cccnc12`, the concentration for half-maximal inhibition (IC50) in the assay on MDA-MB-231 amounted to 2.2 µM; in the assay on MM1.S it was 1.1 µM; in assay [2] it was 0.07 µM; in the assay with MV4-11, 2.9 µM. The thermal shift (ΔTm) in assay [1] was 4.7 °C.

Take `O=C(N/N=C/c1ccc(O)c2ncccc12)c1cccc(Br)c1`: in assay [4], the inhibition worked out at 73%. The same compound showed an IC50 in assay [2] of 5.2 µM.

On to `O=S(=O)(O)c1ccc2cccc(O)c2n1`, for which the inhibition in assay [3] came to 47.4%.

For `Oc1ccc(CN2CCCCCC2)c2cccnc12`, inhibition in assay [2] was half-maximal at 0.67 µM (IC50). In assay [3], the inhibition fell in the range of 46 to 99%.

For the compound `Oc1ccc(CNc2cccc(C(F)(F)F)c2)c2cccnc12`, the inhibition in assay [4] came out at 84%. For the same compound, in assay [2], half-maximal inhibition (IC50) required 4.8 µM.

`Nc1ccc2c(Cn3ccnc3)ccc(O)c2n1`: in assay [1], the ΔTm was found to be 3.8 °C. Moreover, the IC50 in assay [2] was determined as 0.292 µM; in the assay with MV4-11, 20.4 µM.

In turn, `Cn1c(/N=N/c2ccc(O)c3ncccc23)nc2ccccc21` had an inhibition in assay [4] of 100%. In addition, half-maximal inhibition in assay [2] (IC50) required 0.37 µM.

`O=C(Cc1ccccc1)N/N=C/c1ccc(O)c2ncccc12`: the inhibition in assay [4] was 82%. Also, the IC50 in assay [2] worked out at 4.7 µM.

Take `COc1ccc(C)cc1/N=N/c1ccc(O)c2nc(C=O)ccc12`: the inhibition in assay [4] was 20%.

Turning to `O=C1c2ccccc2C(=O)N1CCCOc1ccc(Cn2ccnc2)c2cccnc12`, the inhibition in assay [4] turned out to be 21%.

With `O=c1oc2ccc(Cl)cc2n1Cc1ccc(O)c2ncccc12`, the inhibition in assay [4] was 16%.

Compound `Oc1ccc(CNc2ccccc2Br)c2cccnc12` returned an inhibition in assay [3] of 46%.

`Cc1ccc2c(Cn3ccnc3)ccc(O)c2n1` returned an inhibition in assay [4] of 41%.

The compound `O=C(C[n+]1cccc2cccc(O)c21)c1ccccc1` displayed an inhibition in assay [3] of -0%.

`Cc1cc(C)c2ccc(NN)nc2c1O` registered an IC50 in assay [2] of 18 µM. The same compound gave an inhibition in assay [3] of 88%.

On to `Cc1cc(O)c2cccc(O)c2n1`, for which the inhibition in assay [3] was -0%.

In turn, `Oc1ccc(CSc2ccccc2)c2cccnc12` came in with an inhibition in assay [4] of 86%. Besides, the IC50 in assay [2] was found to be 3 µM.

Take `Oc1ccc(CN2CCn3c(nnc3C(F)(F)F)C2)c2cccnc12`: the ΔTm in assay [1] came to 4.9 °C. The IC50 in assay [2] is 0.068 µM; with MV4-11 it was 22.4 µM.

With `CCOC(=O)C1CCCN(Cc2ccc(O)c3ncccc23)C1` (stereo unspecified), in assay [2], it took 0.738 µM to reach half-maximal inhibition (IC50). Besides, in assay [3], the inhibition came to 97.8%.

Compound `O=C1c2ccccc2C(=O)N1Cc1ccc(O)c2ncccc12` showed an inhibition in assay [4] of 30%.

In turn, `Oc1cccc2ccc(/C=C/c3ccc(-c4cccc(Br)c4)o3)nc12` returned an inhibition in assay [3] below 7.8%.

Regarding `Oc1cccc2ccc(N3CCCCC3)nc12`, the inhibition in assay [4] is -0%.

Regarding `O=[N+]([O-])c1cc([N+](=O)[O-])c2cccnc2c1O`, the inhibition in assay [4] turned out to be 27%.

`O=S(=O)(O)c1ccc(/N=N/c2ccc(O)c3ncccc23)cc1`: the inhibition in assay [4] was -0%.

Compound `Oc1ccc(CSc2nc3ccccc3s2)c2cccnc12` displayed an inhibition in assay [4] of 18%.

Compound `CC1=NN(c2ccc3cccc(O)c3n2)C(=O)C1` registered an inhibition in assay [4] of 99%. The compound further gave an IC50 in assay [2] of 1 µM.

`Oc1c(Br)cc(Br)cc1/C=C/c1ccc2cccc(O)c2n1` gave an inhibition in assay [3] of -0%.

On to `CC(C)(C)OC(=O)Oc1ccc(Cn2ccnc2)c2cccnc12`, for which the IC50 in the assay on MDA-MB-231 was 31.5 µM; with MM1.S it was 1.8 µM; in assay [2], 0.176 µM; in the assay with MV4-11, 11.5 µM. For the same compound, in assay [1], the thermal shift (ΔTm) was 4.5 °C.

Consider `Cc1cc2ncn(Cc3ccc(O)c4ncccc34)c2cc1C`, for which, in assay [4], the inhibition was 23%.

In the case of `Oc1ccc(CNc2ccc(Cl)cn2)c2cccnc12`, the inhibition in assay [4] is 12%.

Regarding `O=C(CCc1ccccc1)N/N=C/c1ccc(O)c2ncccc12`, the inhibition in assay [4] was found to be 86%. In assay [2], this compound showed a half-maximal inhibitory concentration (IC50) of 4.3 µM.

In turn, `Oc1cccc2ccc(/C=C/c3cccc(OCc4ccccc4Cl)c3)nc12` had an inhibition in assay [3] of -0%.

Consider `CC(=O)Oc1ccc(Cn2ccnc2)c2cccnc12`, for which the ΔTm in assay [1] came out at 4.3 °C. For the same compound, the IC50 in assay [2] came out at 0.061 µM; in the assay with MV4-11, 28.5 µM.

Consider `COc1ccc(C)cc1/N=N/c1ccc(O)c2nc(/C=N/O)ccc12`, for which the inhibition in assay [4] was found to be 24%.

In the case of `Oc1ccc(Cn2cncn2)c2cccnc12`, the IC50 is 6.7 µM in the assay on MDA-MB-231, 4.3 µM with MM1.S, 0.095 µM in assay [2] and 5.2 µM with MV4-11. Moreover, the thermal shift (ΔTm) in assay [1] was 3.2 °C.

`COC(=O)C(O)(c1cc(C)c2cccnc2c1O)C(F)(F)F` (stereo unspecified) had an inhibition in assay [3] of 97%.

In turn, `CCOc1c(Br)cc(Br)cc1/C=C/c1ccc2cccc(O)c2n1` yielded an inhibition in assay [3] of -0%.

Regarding `Oc1c(Br)cc(/C=C/c2ccc3cccc(O)c3n2)cc1Br`, the inhibition in assay [3] was -0%.

In assay [3], `C=CC[n+]1cccc2cccc(O)c21` registered an inhibition of -0%.

`O=S(=O)(Nc1ccc(O)c2ncccc12)c1ccc(Cl)cc1`: the inhibition in assay [4] was -0%.

Consider `CCCOCc1ccc(O)c2ncccc12`, for which the inhibition in assay [4] stood at 96%. Also, the IC50 in assay [2] turned out to be 2.1 µM.

`CN(C)c1ccc2cccc(O)c2n1` returned an inhibition in assay [4] of -0%.

As for `O=C(C[n+]1cccc2cccc(O)c21)c1ccc(F)cc1`, in assay [3], the inhibition is -0%.

In the case of `CC(C)(CCl)C(=O)Oc1ccc(Cn2ccnc2)c2cccnc12`, the half-inhibitory concentration (IC50) amounted to 12.4 µM with MDA-MB-231, 3.6 µM with MM1.S, 0.054 µM in assay [2] and 8.9 µM in the assay on MV4-11. Besides, in assay [1], the shift in melting temperature (ΔTm) was found to be 2.4 °C.

In assay [4], `Cc1cc(C)c2ccc(/C=N/O)nc2c1O` came in with an inhibition of 6%.
